In assay [1] the test system is urethane-anesthetized male rats. As to the kind of experiment: in vivo GH secretion after intravenous injection, blood GH by radioimmunoassay. The arrangement: species or system rat. To be noted: compared with 25 μg hGRF(1-40)--OH. As for the experimental part: In addition to the in vitro tests for secretion of growth hormone, in vivo experiments inject the synthetic peptides intravenously into urethane-anesthetized male rats and determine that they trigger GH secretion. Blood samples are taken immediately prior to, and 10, 45 and 90 minutes after injections, and GH levels in blood are measured by radioimmunoassay. […] Dosages between about 400 nanograms and about 50 micrograms of these cyclic peptides per Kg. of body weight are considered to be effective in causing GH secretion.

Assay [2] concerns cells of rat pituitary glands. The assay is described as follows: in vitro GH release from cultured rat pituitary cells, side-by-side with standard hGRF(1-40)--OH. Type of assay: cell-based. To be noted: equimolar concentrations, incubation 3 to 4 hours, ir GH in culture medium by radioimmunoassay. As for the experimental part:
All of these synthetic peptides are considered to be biologically active and potentially useful for stimulating the release of GH by the pituitary.
To determine the relative effectiveness of certain representative synthetic peptides to promote the release of growth hormone, in vitro assays are carried out using synthetic hGRF(1-40)--OH as a standard in side-by-side comparison with equimolar concentrations of the representative analogs which have been synthesized. Cultures are used which include cells of rat pituitary glands removed some three to five days previously. Such cultures are considered optimal for the secretion of growth hormone and are used for the comparative testing, in the general manner described in Vale et al. Endocrinology, 91, 562-572 (1972) and as more particularly described in Vale et al. Endocrinology, 112, 553-1555 (1983). Incubation with the substance to be tested is carried out for 3 to 4 hours, and aliquots of the culture medium are removed and processed to measure their contents in immunoreactive GH(ir GH) by a well-characterized radioimmunoassay.

From patent US5043322A, “Cyclic GRF analogs” (The Salk Institute for Biological Studies, priority 1988, dated 1991) come the findings set out here.

Each structure is given as a SMILES string. Where a SMILES comes first, the peptide text is derived from it. Bridges are numbered along the chain shown (N, C = ends). [ ]: non-standard residue; d: D form. NMeY = CN[C@@H](Cc1ccc(O)cc1)C(=O)O; Nle = CCCC[C@H](N)C(=O)O

`CCCC[C@@H]1NC(=O)[C@H]([C@@H](C)CC)NC(=O)[C@H](NC(=O)[C@H](Cc2c[nH]cn2)NC(=O)[C@H](CC(C)C)NC(=O)[C@H](CC(C)C)NC(=O)[C@H](CCCCN)NC(=O)[C@H](CCCNC(=N)N)NC(=O)[C@H](C)NC(=O)[C@H](Cc2ccc(O)cc2)NC(=O)[C@H](CC(C)C)NC(=O)[C@H](CCC(N)=O)NC(=O)[C@H](C)NC(=O)[C@H](CC(C)C)NC(=O)[C@@H](NC(=O)[C@H](CCCNC(=N)N)NC(=O)[C@H](CCCNC(=N)N)NC(=O)[C@H](Cc2ccc(O)cc2)NC(=O)[C@H](CO)NC(=O)[C@H](CO)NC(=O)[C@@H](NC(=O)[C@H](Cc2ccccc2)NC(=O)[C@@H](NC(=O)[C@H](C)NC(=O)[C@H](CC(=O)O)NC(=O)[C@H](C)NC(=O)[C@H](Cc2ccc(O)cc2)NC)[C@@H](C)CC)[C@@H](C)O)[C@@H](C)CC)CSSC[C@@H](C(N)=O)NC(=O)[C@H](CC(N)=O)NC1=O` [Example I, [N^a MeTyr^1, Ala^15, D-Cys^25, Nle^27,Cys^29]-rGRF(1-29)-NH2] (H-[NMeY]ADAIFTSSYRRILAQLYARKLLH[dC]I[Nle]NC-NH2; disulfide 25-29): the “in vivo response (blood GH) at 10 minutes” value in assay [1] (dosage of 1 μg) was “greater than a 25 μg dose of hGRF(1-40)--OH”.
For `CCCC[C@@H]1NC(=O)[C@H]([C@@H](C)CC)NC(=O)[C@@H](NC(=O)[C@H](Cc2c[nH]cn2)NC(=O)[C@H](CC(C)C)NC(=O)[C@H](CC(C)C)NC(=O)[C@H](CCCCN)NC(=O)[C@H](CCCNC(=N)N)NC(=O)[C@H](C)NC(=O)[C@H](Cc2ccc(O)cc2)NC(=O)[C@H](CC(C)C)NC(=O)[C@H](CCC(N)=O)NC(=O)[C@H](C)NC(=O)[C@H](CC(C)C)NC(=O)[C@@H](NC(=O)[C@H](CCCNC(=N)N)NC(=O)[C@H](CCCNC(=N)N)NC(=O)[C@H](Cc2ccc(O)cc2)NC(=O)[C@H](CO)NC(=O)[C@H](CO)NC(=O)[C@@H](NC(=O)[C@H](Cc2ccccc2)NC(=O)[C@@H](NC(=O)[C@H](C)NC(=O)[C@H](CC(=O)O)NC(=O)[C@H](C)NC(=O)[C@H](Cc2ccc(O)cc2)NC)[C@@H](C)CC)[C@@H](C)O)[C@@H](C)CC)CSSC[C@H](C(N)=O)NC(=O)[C@H](CC(N)=O)NC1=O` [Example IA, [N^a MeTyr^1,Ala^15,Cys^25,Nle^27,D-Cys^29]-rGRF(1-29)-NH2] (H-[NMeY]ADAIFTSSYRRILAQLYARKLLHCI[Nle]N[dC]-NH2; disulfide 25-29), the “biological potency for the secretion of GH relative to hGRF(1-40)--OH” value in assay [2] is “about twice”. The “in vivo response (blood GH) at 10 minutes” value in assay [1] (dosage of 5 μg) is “greater than a 25 μg dose of hGRF(1-40)--OH”.
